Values quoted from earlier work, collected in patent US7052486B2, “Method and system for treating depressive and anxiety disorders” (Medtronic, Inc., priority 2003, dated 2006).

Columns and labels:
refractory depression = conditions: single intrathecal bolus
depression = conditions: administered parenterally (IV or SQ)
[1] = system: refractory obsessive-compulsive disorder (OCD); conditions: chronic parenteral use

SMILES	patients successfully treated for refractory depression (refractory depression)	time to rapid and dramatic improvement in the symptoms of severe depression (refractory depression)	response in depression (depression)	OCD behaviors [1]	symptoms of depression as measured by the Hamilton scale [1]
NC(=O)[C@@H]1CCCN1C(=O)[C@H](Cc1cnc[nH]1)NC(=O)[C@@H]1CCC(=O)N1 [TRH, Thyrotropin-releasing hormone]	7 out of 10	< 24 h	unpredictable responses		
CNS(=O)(=O)Cc1ccc2[nH]cc(CCN(C)C)c2c1 [sumatriptan]				only modest reductions	significant improvements
